From patent US6432960B1, “Squarate derivatives of dihydropyridine NPY antagonists” (Bristol-Myers Squibb Company, priority 2000, dated 2002)
pIC50: −log10 of the molar value.

Key:
NPY Y1 receptors = target: T1, NPY Y1 receptors (Homo sapiens, UniProt P25929); experiment: Binding affinity at NPY Y1 receptors in SK-N-MC cell membranes, iodine-125-labeled I-PYY radioligand; conditions: SK-N-MC (human neuroblastoma) cell membranes; 125I-PYY radioligand
T1 construct: assayed in SK-N-MC (human neuroplastoma) cell membranes; endogenous in cells; host or cells: SK-N-MC (human neuroblastoma) cell membranes
T1 sequence (P25929 1-384): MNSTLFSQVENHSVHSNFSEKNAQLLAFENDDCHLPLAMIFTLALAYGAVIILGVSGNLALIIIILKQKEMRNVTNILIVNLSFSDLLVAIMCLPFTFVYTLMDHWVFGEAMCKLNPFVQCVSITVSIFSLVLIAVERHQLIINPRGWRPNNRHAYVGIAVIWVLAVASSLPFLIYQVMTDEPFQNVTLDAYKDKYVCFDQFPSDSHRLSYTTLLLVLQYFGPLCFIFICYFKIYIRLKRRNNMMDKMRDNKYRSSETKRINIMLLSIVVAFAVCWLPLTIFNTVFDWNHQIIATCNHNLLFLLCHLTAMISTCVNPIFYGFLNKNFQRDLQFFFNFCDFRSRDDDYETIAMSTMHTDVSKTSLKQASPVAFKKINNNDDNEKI
Experimental: This pharmacologic activity is assayed in SK-N-MC (human neuroblastoma) cell membranes using iodine-125-labeled I-PYY as a radioligand. […] These types of dihydropyridines have significant affinity for α1-adrenergic receptors and/or Ca^++ channels.
The following examples set forth the process for producing various squarate derivatives of the dihydropyridine. The binding affinities were determined at NPY Y1 receptors. The pharmacologic activity was assayed in SK-N-MC (human neuroblastoma) cell membranes using iodine-125-labeled 1-PYY as ratio ligand. Examples 1 and 2 are directed to the production of the intermediates. Examples 3-6 are directed to the process of producing the squarate derivatives.
The compounds of Examples 1-6 were tested for binding affinity at NPY Y1 receptors. The pharmacologic activity was assayed in SK-N-MC (human neuroplastoma) cell membranes using iodine-125 labeled I-PYY as a radioligand.

SMILES | pIC50 (NPY Y1 receptors) | melting point [°C]
CCOc1c(Nc2cccc(C3C(C(=O)OC)=C(C)NC(C)=C3C(=O)OC)c2)c(=O)c1=O [Example 1, 4-[3-[(2-Ethoxy-3,4-dioxo-1-cyclobuten-1-yl)amino]phenyl]-1,4-dihydro-2,6-dimethyl-3,5-pyridinedicarboxylic Acid, Dimethyl Ester] | < 6.00 | 249 to 252
CCOc1c(Nc2cc(C3C(C(=O)OC)=C(C)NC(C)=C3C(=O)OC)ccc2F)c(=O)c1=O [Example 2, 4-[3-[(2-Ethoxy-3,4-dioxo-1cyclobuten-1-yl)amino]-4-fluorophenyl]-1,4-dihydro-2,6-dimethyl-3,5-pyridinedicarboxylic Acid, Dimethyl Ester] | < 6.00 | 203 to 205
COC(=O)C1=C(C)NC(C)=C(C(=O)OC)C1c1cccc(Nc2c(NCCCN3CCC(c4cccc(OC)c4)CC3)c(=O)c2=O)c1 [Example 3, 1,4-Dihydro-4-[3-[[2-[[3-[4-(3-methoxyphenyl)-1-piperidinyl]propyl]amino]-3,4-dioxo-1-cyclobuten-1-yl]amino]phenyl]-2,3-dimethyl-3,5-pyridinedicarboxylic Acid, Dimethyl Ester] | 7.61 | –
COC(=O)C1=C(C)NC(C)=C(C(=O)OC)C1c1ccc(F)c(Nc2c(NCCCN3CCC(c4cccc(OC)c4)CC3)c(=O)c2=O)c1 [Example 4, 4-[4-Fluoro-3-[[2-[[3-[4-(3-methoxyphenyl)-1-piperidinyl]propyl]amino]-3,4-dioxo-1-cyclobuten-1-yl]amino]phenyl]-1,4-dihydro-2,6-dimethyl-3,5-pyridinedicarboxylic Acid, Dimethyl Ester] | 7.18 | 205 to 207
COC(=O)C1=C(C)NC(C)=C(C(=O)OC)C1c1cccc(Nc2c(NCCCN3CCN(C4CCCCC4)CC3)c(=O)c2=O)c1 [Example 5, 4-[3-[[2-[[3-(4-cyclohexyl-1-piperazinyl)propyl]amino]-3,4-dioxo-1-cyclobuten-1-yl]amino]phenyl]-1,4-dihydro-2,6-dimethyl-3,5-pyridinedicarboxylic Acid, Dimethyl Ester] | 6.85 | 210 to 212
COC(=O)C1=C(C)NC(C)=C(C(=O)OC)C1c1ccc(F)c(Nc2c(NCCCN3CCN(C4CCCCC4)CC3)c(=O)c2=O)c1 [Example 6, 4-[3-[[2-[[3-(4-cyclohexyl-1-piperazinyl)propyl]amino]-3,4-dioxo-1-cyclobuten-1-yl]amino]-4-fluorophenyl]-1,4-dihydro-2,6-dimethyl-3,5-pyridinedicarboxylic Acid, Dimethyl Ester] | 6.02 | 229 to 230
